Data reported in US6603046B1, “Bis-aromatic a,β-unsaturated ketones” (Lica Pharmaceuticals A/S, priority 1992, dated 2003).
Read-outs that look alike come from different tables or passages of the source.

How the values were obtained:
[1] = test system: chloroquine resistant P. falciparum DD2 strain; test: In vitro growth of P. falciparum DD2, 3H-hypoxanthine uptake (Example 15); type: cell-based, Plasmodium falciparum; details: title: percentage inhibition of 3H-hypoxanthine uptake
P. yoelii strain YM = P. yoelii strain YM infection in mice, parasitemia and mortality (Example 16); type: in vivo, BALB/c mice; details: Table 16.11; for % parasitemia (mean ± SEM): 3 h after infection, D + 1 to D + 5
L. major promastigotes = L. major promastigotes from 4-days cultures, 3H-thymidine uptake (Examples 5, 14); type: cell-based, Leishmania major; details: Leishmania major, read-out: percentage inhibition of promastigotes (upper figure); for inhibition at 0.5 µg/mL: 0.5 μg/ml; for inhibition at 1 µg/mL: 1 μg/ml; for inhibition at 5 µg/mL: 5 μg/ml
Method: Parasite cultures. The same parasite culture as described in Example 4. Promastigotes were harvested on day 4 of the culture and used for the parasiticidal assay.
Effect on promastigotes. […] Following incubation, […] of ^3H-thymidine was added to each well and further incubated for 18 hrs. Promastigotes were then harvested on filter paper by means of a cell harvester (Skatron, Lierbyen, Norway), extensively washed with distilled water and counted in a scintillation counter (Minaxi Ti-Carb 4000, United Technologies, Packard, USA).
L. major promastigotes. The L. major promastigotes were prepared as described in Example 4 and harvested after 4 days.

human lymphocytes = test: Lymphocyte Proliferation Assay, 3H-thymidine incorporation (Example 13); details: Homo sapiens, Lymphocyte
[2] = read-out: inhibition of lymphocytes (lower figure)

Compound: COc1cccc(/C=C/C(=O)c2ccc(O)cc2)c1OC [2,3-Dimethoxy-4′-hydroxychalcone]
- Growth in % of control (mean ± SEM) ([1]; 0.5 μg/ml): 46 ± 22%
- Growth in % of control (mean ± SEM) ([1]; 1 μg/ml): 54.4 ± 22.2%
- Growth in % of control (mean ± SEM) ([1]; 5 μg/ml): 53.5 ± 20.1%
- Growth in % of control (mean ± SEM) ([1]; 10 μg/ml): 67.6 ± 12.4%

Compound: CCOc1ccc(/C=C/C(=O)c2ccccc2O)c(OCC)c1 [2,4-Diethoxy-2′-hydroxychalcone]
- Growth in % of control (mean ± SEM) ([1]; 0.5 μg/ml): 23.1 ± 8.3%
- Growth in % of control (mean ± SEM) ([1]; 1 μg/ml): 20.8 ± 8.8%
- Growth in % of control (mean ± SEM) ([1]; 5 μg/ml): 33.7 ± 8.2%
- Growth in % of control (mean ± SEM) ([1]; 10 μg/ml): 55.3 ± 7.4%

Compound: CCOc1ccc(/C=C/C(=O)c2ccc(O)cc2)c(OCC)c1 [2,4-Diethoxy-4′-hydroxychalcone]
- Growth in % of control (mean ± SEM) ([1]; 0.5 μg/ml): 14.5 ± 7.2%
- Growth in % of control (mean ± SEM) ([1]; 1 μg/ml): 9 ± 7%
- Growth in % of control (mean ± SEM) ([1]; 5 μg/ml): 54.2 ± 10.2%
- Growth in % of control (mean ± SEM) ([1]; 10 μg/ml): 86.8 ± 7.3%

Compound: C=CCOc1ccc(C(=O)/C=C/c2ccc(OC)cc2OC)cc1 [2,4-Dimethoxy-4′-allyloxychalcone, 2,4-dimethoxy-4′-prop-2-enyloxychalcone]
- Growth in % of control (mean ± SEM) ([1]; 0.5 μg/ml): 29.1 ± 10.8%
- Growth in % of control (mean ± SEM) ([1]; 1 μg/ml): 23.6 ± 11.2%
- Growth in % of control (mean ± SEM) ([1]; 5 μg/ml): 44.3 ± 10.5%
- Growth in % of control (mean ± SEM) ([1]; 10 μg/ml): 75.2 ± 7.8%
- % parasitemia (mean ± SEM) (P. yoelii strain YM; D + 6, i.p. 20 mg/kg twice daily): 0.4 ± 0.2%
- % parasitemia (mean ± SEM) (P. yoelii strain YM; D + 6, i.p. 30 mg/kg twice daily): 37.4 ± 0.9%
- % parasitemia (mean ± SEM) (P. yoelii strain YM; D + 6, i.p. 40 mg/kg twice daily): 55.8 ± 1.5%
- % parasitemia (mean ± SEM) (P. yoelii strain YM; D + 8, i.p. 20 mg/kg twice daily): 0.8 ± 0.2%
- % parasitemia (mean ± SEM) (P. yoelii strain YM; D + 8, i.p. 30 mg/kg twice daily): 67.2 ± 0.9%
- mortality (no. of dead mice/total no. of tested mice) (P. yoelii strain YM; D + 8, i.p. 40 mg/kg twice daily to D + 5): (2/5)
- % parasitemia (mean ± SEM) (P. yoelii strain YM; D + 8, i.p. 40 mg/kg twice daily): 83 ± 2.1%
- % parasitemia (mean ± SEM) (P. yoelii strain YM; D + 10, i.p. 20 mg/kg twice daily): 14.3 ± 4.0%
- mortality (no. of dead mice/total no. of tested mice) (P. yoelii strain YM; D + 10, i.p. 30 mg/kg twice daily to D + 5): (5/5)
- mortality (no. of dead mice/total no. of tested mice) (P. yoelii strain YM; D + 10, i.p. 40 mg/kg twice daily to D + 5): (5/5)
- % parasitemia (mean ± SEM) (P. yoelii strain YM; D + 12, i.p. 20 mg/kg twice daily): 32.4 ± 4.0%
- mortality (no. of dead mice/total no. of tested mice) (P. yoelii strain YM; D + 14, i.p. 20 mg/kg twice daily to D + 5): 3/5
- % parasitemia (mean ± SEM) (P. yoelii strain YM; D + 14, i.p. 20 mg/kg twice daily): 7%
- mortality (no. of dead mice/total no. of tested mice) (P. yoelii strain YM; D + 16, i.p. 20 mg/kg twice daily to D + 5): 3/5
- % parasitemia (mean ± SEM) (P. yoelii strain YM; D + 16, i.p. 20 mg/kg twice daily): 0%

Compound: COCOc1ccc(C(=O)/C=C/c2ccc(OC)cc2OC)cc1 [2,4-Dimethoxy-4′-methoxymethoxychalcone, 2,4-dimethoxy-4′-methoxymethoxychalcone]
- Growth in % of control (mean ± SEM) ([1]; 0.5 μg/ml): 14.0 ± 6.8%
- Growth in % of control (mean ± SEM) ([1]; 1 μg/ml): 0 ± 10.9%
- Growth in % of control (mean ± SEM) ([1]; 5 μg/ml): 0 ± 10.2%
- Growth in % of control (mean ± SEM) ([1]; 10 μg/ml): 40.8 ± 9.3%

Compound: COc1ccc(OC)c(/C=C/C(=O)c2ccc(O)cc2)c1 [2,5-Dimethoxy-4′-hydroxychalcone]
- Growth in % of control (mean ± SEM) ([1]; 0.5 μg/ml): 14 ± 75%
- Growth in % of control (mean ± SEM) ([1]; 1 μg/ml): 21.2 ± 11.1%
- Growth in % of control (mean ± SEM) ([1]; 5 μg/ml): 68.4 ± 6.8%
- Growth in % of control (mean ± SEM) ([1]; 10 μg/ml): 92.5 ± 2.4%

Compound: COc1ccc(OC)c(/C=C/C(=O)c2ccccc2)c1 [2,5-Dimethoxychalcone]
- Growth in % of control (mean ± SEM) ([1]; 0.5 μg/ml): 11 ± 7.7%
- Growth in % of control (mean ± SEM) ([1]; 1 μg/ml): 5.5 ± 5.1%
- Growth in % of control (mean ± SEM) ([1]; 5 μg/ml): 27.1 ± 5.3%
- Growth in % of control (mean ± SEM) ([1]; 10 μg/ml): 58.8 ± 6.4%

Compound: C=CCOc1ccc(C(=O)/C=C/c2ccc(OC)c(OC)c2)cc1 [3,4-Dimethoxy-4′-allyloxychalcone, 3,4-dimethoxy-4′-prop-2-enyloxychalcone]
- Growth in % of control (mean ± SEM) ([1]; 0.5 μg/ml): 0 ± 11.3%
- Growth in % of control (mean ± SEM) ([1]; 1 μg/ml): 9.4 ± 15.8%
- Growth in % of control (mean ± SEM) ([1]; 5 μg/ml): 16.2 ± 5.5%
- Growth in % of control (mean ± SEM) ([1]; 10 μg/ml): 52.8 ± 4.7%

Compound: C=CCOc1ccc(C(=O)/C=C/c2cc(OC)cc(OC)c2)cc1 [3,5-Dimethoxy-4′-allylchalcone, 3,5-dimethoxy-4′-prop-2-enyloxychalcone]
- Growth in % of control (mean ± SEM) ([1]; 0.5 μg/ml): 9.1 ± 5.2%
- Growth in % of control (mean ± SEM) ([1]; 1 μg/ml): 3.4 ± 4.7%
- Growth in % of control (mean ± SEM) ([1]; 5 μg/ml): 44 ± 8.1%
- Growth in % of control (mean ± SEM) ([1]; 10 μg/ml): 79.1 ± 10.5%

Compound: O=C(/C=C/c1ccc(O)cc1)c1ccc(O)cc1 [drawing 63]
- inhibition at 10 µg/mL (L. major promastigotes): 53.1 ± 7.9%
- inhibition at 0.5 µg/mL (L. major promastigotes; Table 14.1): 22.5 ± 10%
- inhibition at 1 µg/mL (L. major promastigotes; Table 14.1): 26.6 ± 7.6%
- inhibition at 5 µg/mL (L. major promastigotes; Table 14.1): 34.6 ± 10.5%
- inhibition at 0.5 µg/mL (human lymphocytes; [2]): 0%
- inhibition at 1 µg/mL (human lymphocytes; [2]): 0%
- inhibition at 5 µg/mL (human lymphocytes; [2]): 96.3%
- inhibition at 10 µg/mL (human lymphocytes; read-out: inhibition of lymphocytes (lower figure), response to PHA, 10 μg/ml): 94.8%

Compound: COc1ccc(C(=O)/C=C/c2ccccc2)cc1 [drawing 66]
- inhibition at 0.5 µg/mL (L. major promastigotes; Table 14.1): 20.6%
- inhibition at 1 µg/mL (L. major promastigotes; Table 14.1): 26.3%
- inhibition at 5 µg/mL (L. major promastigotes; Table 14.1): 68.1%
- inhibition at 10 µg/mL (L. major promastigotes; Table 14.1, 10 μg/ml): 85.5%
- inhibition at 0.5 µg/mL (human lymphocytes; [2]): 2%
- inhibition at 1 µg/mL (human lymphocytes; [2]): 7.5%
- inhibition at 5 µg/mL (human lymphocytes; [2]): 91%
- inhibition at 10 µg/mL (human lymphocytes; [2]): 100%

Compound: COc1cccc(/C=C/C(=O)c2ccc(O)cc2)c1OC [drawing 69]
- inhibition at 0.5 µg/mL (L. major promastigotes; Table 14.1): 32%
- inhibition at 1 µg/mL (L. major promastigotes; Table 14.1): 43%
- inhibition at 5 µg/mL (L. major promastigotes; Table 14.1): 95.2 ± 4.7%
- inhibition at 10 µg/mL (L. major promastigotes; Table 14.1, 10 μg/ml): 97.1 ± 3.5%
- inhibition at 0.5 µg/mL (human lymphocytes; [2]): 2%
- inhibition at 1 µg/mL (human lymphocytes; [2]): 7.5%
- inhibition at 5 µg/mL (human lymphocytes; [2]): 89.3%
- inhibition at 10 µg/mL (human lymphocytes; [2]): 99.8%

Compound: COc1cc(/C=C/C(=O)c2ccc(O)cc2O)ccc1O [drawing 74]
- inhibition at 0.5 µg/mL (L. major promastigotes; Table 14.1): 7.8%
- inhibition at 1 µg/mL (L. major promastigotes; Table 14.1): 14.3%
- inhibition at 5 µg/mL (L. major promastigotes; Table 14.1): 56.7%
- inhibition at 10 µg/mL (L. major promastigotes; Table 14.1, 10 μg/ml): 83.3%
- inhibition at 0.5 µg/mL (human lymphocytes; [2]): 2%
- inhibition at 1 µg/mL (human lymphocytes; [2]): 6%
- inhibition at 5 µg/mL (human lymphocytes; [2]): 9.5%
- inhibition at 10 µg/mL (human lymphocytes; [2]): 38.3%

Compound: COCOc1ccc(C(=O)/C=C/c2ccc(OC)cc2OC)cc1 [drawing 90]
- inhibition at 0.5 µg/mL (L. major promastigotes; Table 14.1): 22.8 ± 9.7%
- inhibition at 1 µg/mL (L. major promastigotes; Table 14.1): 27.6 ± 10.9%
- inhibition at 5 µg/mL (L. major promastigotes; Table 14.1): 50.2 ± 13%
- inhibition at 10 µg/mL (L. major promastigotes; Table 14.1, 10 μg/ml): 65.4 ± 16.1%
- inhibition at 0.5 µg/mL (human lymphocytes; [2]): 0%
- inhibition at 1 µg/mL (human lymphocytes; [2]): 5.1%
- inhibition at 5 µg/mL (human lymphocytes; [2]): 11.2%
- inhibition at 10 µg/mL (human lymphocytes; [2]): 15.4%

Compound: COc1ccc(CCC(=O)c2ccc(O)cc2)c(OC)c1 [drawing 92]
- inhibition at 0.5 µg/mL (L. major promastigotes; Table 14.1): 8.5 ± 1.8%
- inhibition at 1 µg/mL (L. major promastigotes; Table 14.1): 5.6 ± 5.4%
- inhibition at 5 µg/mL (L. major promastigotes; Table 14.1): 22.5 ± 9.7%
- inhibition at 10 µg/mL (L. major promastigotes; Table 14.1, 10 μg/ml): 31.3 ± 16%
- inhibition at 0.5 µg/mL (human lymphocytes; [2]): 0%
- inhibition at 1 µg/mL (human lymphocytes; [2]): 0%
- inhibition at 5 µg/mL (human lymphocytes; [2]): 3%
- inhibition at 10 µg/mL (human lymphocytes; [2]): 1.5%
